Assay results as given in PMC3928151 (ACS chemical biology, 2013).

Target: CaCrg1 (Candida albicans, UniProt A0A1D8PSY8)
Test: […] methyl transfer, acid-labile volatility
Type: biochemical
Details: 0.2 mM cantharidin, 20 µM S-adenosyl-[methyl-14C]-L-methionine, 0.1 M sodium phosphate pH 7.4, 30 °C, 120 min

Compound: C[C@@]12C(=O)OC(=O)[C@]1(C)[C@H]1CC[C@@H]2O1 [cantharidin]
- 14C methyl transfer, acid-labile volatility (14C-methanol): demonstrating that CaCrg1 is a functional MTase methylating cantharidin in vitro
